Patent US20210161788A1, “Anti-Blue Light Dermal Topical Composition and Applications Thereof” (Taiwan AC Scientific Inc., priority 2019, published 2021)

Assays:
Human Skin = test: Evaluation of the effect on human skin by the Janus facial analysis system; assay type: in vivo; settings: 3% solution applied on skin
Procedure: Evaluation method: A subject who has applied the 3% terephthalylidene dicamphor sulfonic acid solution on skin surfaces for seven straight days is tested by the Janus facial analysis system for status change of their skin.

[1] = Penetration rates of UV, blue light and visual light and shading rate of blue light, UV/blue-light detector; assay type: physicochemical; settings: for Penetration rate UV: 380-400 nm; for Penetration rate BL: 405-425 nm; for Penetration rate VL: 520-540 nm; for Shading rate of blue light: VL penetration minus BL penetration
Procedure: Solutions with different concentrations prepared by terephthalylidene dicamphor sulfonic acid are tested with a UV/blue-light detector (Actor-Mater Co., Ltd.) for penetration rates of ultraviolet (UV), blue light (BL) and visual light (VL). The shading rate of blue light is calculated by the formula as follows:
Shading rate of blue light (%)=penetration rate of visual light−penetration rate of blue light
where wavelength ranges of UV, blue light and visual light tested with a UV/blue-light detector (Actor-Mater Co., Ltd.) are 380-400 nm, 405-425 nm and 520-540 nm, respectively.
The 3% terephthalylidene dicamphor sulfonic acid solution (B) and the 3% rutoside solution (C) are prepared by ingredients as shown in formulas in Table 4. Referring to test modes in Embodiment 1 to Embodiment 3, the anti-blue light effects and the shading rates of blue light for solutions (B) and (C) are tested, respectively.
The synergistic effect of rutoside and terephthalylidene dicamphor sulfonic acid on anti-blue light is explored in this embodiment. Prepared by rutoside and terephthalylidene dicamphor sulfonic acid, the mixed solutions with different concentrations are tested for shading rates of blue light according to the test mode as shown in Embodiment 3.

Structure (SMILES): CC1(C)C2CCC1(CS(=O)(=O)O)C(=O)C2=Cc1ccc(C=C2C(=O)C3(CS(=O)(=O)O)CCC2C3(C)C)cc1 (stereo in doubt) [terephthalylidene dicamphor sulfonic acid]
- Reduction of the total average of fine wrinkles (Human Skin; after 7 straight days vs before use): 7%
- Count of melanin pigmentations at the forehead (Human Skin; after 7 straight days, before use 42): 25
- Count of melanin pigmentations at one side of the face (Human Skin; after 7 straight days, before use 49): 42
- Count of melanin pigmentations at cheeks (Human Skin; after 7 straight days, before use 56): 44
- Fine wrinkles under eyelids (Human Skin; after 7 straight days, before use 57): 54
- Total average fine wrinkles (Human Skin; after 7 straight days, before use 82): 75
- Crow's feet (Human Skin; after 7 straight days, before use 100): 88
- Penetration rate UV ([1]; 0.5% (W/W) solution): 3.00 ± 0.00%
- Penetration rate BL ([1]; 0.5% (W/W) solution): 87.33 ± 0.58%
- Penetration rate VL ([1]; 0.5% (W/W) solution): 99.00 ± 0.00%
- Shading rate of blue light ([1]; 0.5% (W/W) solution): 11.67 ± 0.58%
- Penetration rate UV ([1]; 1% (W/W) solution): 1.67 ± 0.58%
- Penetration rate BL ([1]; 1% (W/W) solution): 77.00 ± 1.00%
- Penetration rate VL ([1]; 1% (W/W) solution): 98.67 ± 0.58%
- Shading rate of blue light ([1]; 1% (W/W) solution): 21.67 ± 0.58%
- Penetration rate UV ([1]; 3% (W/W) solution): 0.00 ± 0.00%
- Penetration rate BL ([1]; 3% (W/W) solution): 50.00 ± 1.00%
- Penetration rate VL ([1]; 3% (W/W) solution): 97.33 ± 0.58%
- Shading rate of blue light ([1]; 3% (W/W) solution): 47.33 ± 0.58%
- Penetration rate UV ([1]; 5% (W/W) solution): 0.00 ± 0.00%
- Penetration rate BL ([1]; 5% (W/W) solution): 42.33 ± 0.58%
- Penetration rate VL ([1]; 5% (W/W) solution): 97.33 ± 0.58%
- Shading rate of blue light ([1]; 5% (W/W) solution): 55.00 ± 1.00%
- Penetration rate UV ([1]; 10% (W/W) solution): 0.00 ± 0.00%
- Penetration rate BL ([1]; 10% (W/W) solution): 26.33 ± 1.15%
- Penetration rate VL ([1]; 10% (W/W) solution): 95.00 ± 1.00%
- Shading rate of blue light ([1]; 10% (W/W) solution): 68.67 ± 0.58%
- Penetration rate UV ([1]; 20% (W/W) solution): 0.00 ± 0.00%
- Penetration rate BL ([1]; 20% (W/W) solution): 16.00 ± 1.00%
- Penetration rate VL ([1]; 20% (W/W) solution): 93.00 ± 1.00%
- Shading rate of blue light ([1]; 20% (W/W) solution): 77.00 ± 0.00%
- Average shading rate of blue light ([1]; content of anti-blue light substances in a solution 1%): 22%
- Average shading rate of blue light ([1]; content of anti-blue light substances in a solution 3%): 47%
